What is called IC50 is the concentration that gives 50% inhibition.

The test concerns the target P. falciparum apicoplast DNA polymerase (Pf-apPOL) (Plasmodium falciparum, UniProt Q8ILY1). Kind of test: Fluorescence-based high-throughput DNA polymerase assay (molecular beacon), primary screen and dose-response. Type of test: biochemical. The settings on record: for IC50: supplemental file 2, sheet IC50 nontoxic compounds, Pf-apPOL; for DNA Pol: unit not given, 90 min, 10 µM. The method, boiled down:
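Single-point screening used 10 µM compound with 20 nM polymerase, 20 nM hairpin substrate and 6 µM dNTPs for 90 min at 25 °C. Confirmatory titrations (2.5–80 µM) followed fluorescence at three times, and IC50 was derived from a fit including a cooperativity term n.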

[1] abbreviates: 'DNA Pol' of the 186 hits list (primary screen result).
Where [2] appears, read: primary screen value of the library well.

Chain of P. falciparum apicoplast DNA polymerase (Pf-apPOL) (Q8ILY1 entry or part of it): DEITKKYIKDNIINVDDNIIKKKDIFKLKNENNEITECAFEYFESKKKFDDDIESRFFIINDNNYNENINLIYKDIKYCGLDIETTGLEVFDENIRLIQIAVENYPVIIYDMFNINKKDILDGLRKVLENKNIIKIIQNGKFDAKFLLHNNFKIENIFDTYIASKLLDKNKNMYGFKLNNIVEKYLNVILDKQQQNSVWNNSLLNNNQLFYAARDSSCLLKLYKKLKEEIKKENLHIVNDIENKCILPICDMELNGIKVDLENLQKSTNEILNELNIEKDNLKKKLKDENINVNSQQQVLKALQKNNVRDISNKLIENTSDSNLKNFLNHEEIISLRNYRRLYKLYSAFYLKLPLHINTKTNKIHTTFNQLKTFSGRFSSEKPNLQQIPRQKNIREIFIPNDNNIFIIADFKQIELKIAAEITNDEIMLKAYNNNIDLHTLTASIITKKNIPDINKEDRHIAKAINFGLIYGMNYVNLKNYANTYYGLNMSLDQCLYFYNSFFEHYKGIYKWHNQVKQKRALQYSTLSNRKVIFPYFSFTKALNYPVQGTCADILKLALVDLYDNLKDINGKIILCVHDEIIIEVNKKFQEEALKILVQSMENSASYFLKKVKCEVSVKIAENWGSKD

For `O=C1NN(c2ccc(Cl)c(Cl)c2)C(=O)/C1=C/c1ccc(-c2ccc3c(c2)C(=O)OC3)o1` [Molecule 90], the IC50 came to 3.43 µM.
The same measure, in the same setting: to `Cc1ccsc1Cn1c(C)ccc1C` [Molecule 70] belongs 31.6 µM.
As to `COc1ccc(S(=O)(=O)/N=C2\NC(=O)/C(=C3\C(=O)Nc4ccc([N+](=O)[O-])cc43)S2)cc1` [KU0054985], the “DNA Pol” value reads like this: under setting [1], 41; under setting [2], 41. The “% inhibition Apo pol 10'” value (DRC-1, concentration 2.5) is reported as 18.5864%; the “% inhibition Apo pol 10'” value (DRC-1, concentration 5) turned out to be 36.9179%; the “% inhibition Apo pol 10'” value (DRC-1, concentration 10) worked out at 67.7559%; the “% inhibition Apo pol 10'” value (DRC-1, concentration 20) came to 96.4602%; the “% inhibition Apo pol 10'” value (DRC-1, concentration 40) worked out at 99.5336%; the “% inhibition Apo pol 10'” value (DRC-1, concentration 80) is reported as 99.5405%. Further, the “% inhibition Apol 90'” value (DRC-1, concentration 2.5) amounted to 1.843%; the “% inhibition Apol 90'” value (DRC-1, concentration 5) worked out at 6.911%; the “% inhibition Apol 90'” value (DRC-1, concentration 10) is recorded as 25.9736%; the “% inhibition Apol 90'” value (DRC-1, concentration 20) is 66.8469%; the “% inhibition Apol 90'” value (DRC-1, concentration 40) is recorded as 95.4915%; the “% inhibition Apol 90'” value (DRC-1, concentration 80) is reported as 99.0869%. Moreover, the “% inhibition apPOL 180'” value (DRC-1, concentration 2.5) is on record as -5.136%; the “% inhibition apPOL 180'” value (DRC-1, concentration 5) was -1.681%; the “% inhibition apPOL 180'” value (DRC-1, concentration 10) is listed as 15.3394%; the “% inhibition apPOL 180'” value (DRC-1, concentration 20) is given as 51.5386%; the “% inhibition apPOL 180'” value (DRC-1, concentration 40) came to 94.1836%; the “% inhibition apPOL 180'” value (DRC-1, concentration 80) is reported as 99.3305%. Moreover, the “% inhibition apPOL 180'” value reads like this: (DRC-2, concentration 2.5) 4.38%; (DRC-2, concentration 5) 2.14%; (DRC-2, concentration 10) 13%; (DRC-2, concentration 20) 26%; (DRC-2, concentration 40) 72%; (DRC-2, concentration 80) 88%. The “% inhibition Apo pol 5'” value is, setting by setting: (DRC-2, concentration 2.5) 4%; (DRC-2, concentration 5) 9%; (DRC-2, concentration 10) 30%; (DRC-2, concentration 20) 52%; (DRC-2, concentration 40) 63%; (DRC-2, concentration 80) 67%. Besides, the “% inhibition Apol 40'” value runs as follows: (DRC-2, concentration 2.5) 3.68%; (DRC-2, concentration 5) 6%; (DRC-2, concentration 10) 20%; (DRC-2, concentration 20) 38%; (DRC-2, concentration 40) 74%; (DRC-2, concentration 80) 82%. Moreover, the “% inhibition ApPOL 90'” value (DRC-2, concentration 2.5) is 3.52%; the “% inhibition ApPOL 90'” value (DRC-2, concentration 5) came to 5%; the “% inhibition ApPOL 90'” value (DRC-2, concentration 10) is on record as 18%; the “% inhibition ApPOL 90'” value (DRC-2, concentration 20) came to 33%; the “% inhibition ApPOL 90'” value (DRC-2, concentration 40) is 75%; the “% inhibition ApPOL 90'” value (DRC-2, concentration 80) turned out to be 85%.
With `O=C(NNC(=O)c1ccc(Cl)cc1)C(=O)NNC(=O)c1ccc(Cl)cc1` [Molecule 25], the half-inhibitory concentration (IC50) was 9.83 µM.
Take `CSC1=C(C#N)C(=C(C#N)C#N)NC(c2ccccc2)=N1` [Molecule 2, CSc1nc([nH]c(=C(C#N)C#N)c1C#N)c1ccccc1]: the “DNA Pol” value is 97 under setting [1] and 97 under setting [2]. For the same compound, the “% inhibition Apo pol 10'” value reads like this: (DRC-1, concentration 2.5) 13.8022%; (DRC-1, concentration 5) 41.8918%; (DRC-1, concentration 10) 81.1404%; (DRC-1, concentration 20) 90.9481%; (DRC-1, concentration 40) 95.8628%; (DRC-1, concentration 80) 96.566%. The “% inhibition Apol 90'” value by setting is: (DRC-1, concentration 2.5) 8.793%; (DRC-1, concentration 5) 34.1727%; (DRC-1, concentration 10) 79.1809%; (DRC-1, concentration 20) 88.8682%; (DRC-1, concentration 40) 93.6444%; (DRC-1, concentration 80) 97.3798%. Further, the “% inhibition apPOL 180'” value reads like this: (DRC-1, concentration 2.5) 3.214%; (DRC-1, concentration 5) 23.1824%; (DRC-1, concentration 10) 72.8695%; (DRC-1, concentration 20) 86.4873%; (DRC-1, concentration 40) 92.4303%; (DRC-1, concentration 80) 97.316%. Besides, the “% inhibition apPOL 180'” value reads like this: (DRC-2, concentration 2.5) 2.48%; (DRC-2, concentration 5) 13%; (DRC-2, concentration 10) 36%; (DRC-2, concentration 20) 61%; (DRC-2, concentration 40) 67%; (DRC-2, concentration 80) 80%. The “% inhibition Apo pol 5'” value reads like this: (DRC-2, concentration 2.5) 8%; (DRC-2, concentration 5) 21%; (DRC-2, concentration 10) 38%; (DRC-2, concentration 20) 53%; (DRC-2, concentration 40) 57%; (DRC-2, concentration 80) 60%. Besides, the “% inhibition Apol 40'” value runs as follows: (DRC-2, concentration 5) 25%; (DRC-2, concentration 10) 47%; (DRC-2, concentration 20) 65%; (DRC-2, concentration 40) 69%; (DRC-2, concentration 80) 76%. In addition, the “% inhibition ApPOL 90'” value is 9% (DRC-2, concentration 2.5); 22% (DRC-2, concentration 5); 46% (DRC-2, concentration 10); 66% (DRC-2, concentration 20); 70% (DRC-2, concentration 40); 79% (DRC-2, concentration 80).

These data come from PMC9090415, “Discovery of small molecule inhibitors of Plasmodium falciparum apicoplast DNA polymerase” (Journal of Enzyme Inhibition and Medicinal Chemistry, 2022).
